From the NIST ThermoML archive (doi:10.1021/je060271a)

Settings: 323.15 K, Liquid, Vibrating tube method

CCCCC(=O)OCC(COC(=O)CCCC)(COC(=O)CCCC)COC(=O)CCCC [pentaerythritol tetrapentanoate]
Settings	mass density [kg/m3]
15928 kPa	1005.6
15948 kPa	1005.6
15968 kPa	1005.5
15988 kPa	1005.5
16012 kPa	1005.6
16032 kPa	1005.7
16056 kPa	1005.6
16076 kPa	1005.7
16096 kPa	1005.7
16116 kPa	1005.7
16141 kPa	1005.7
16161 kPa	1005.6
16185 kPa	1005.7
16205 kPa	1005.7
16227 kPa	1005.7
16252 kPa	1005.7
16273 kPa	1005.7
16293 kPa	1005.7
16318 kPa	1005.8
16339 kPa	1005.8
16360 kPa	1005.8
16385 kPa	1005.8
16406 kPa	1006
16427 kPa	1005.8
16453 kPa	1005.9
16474 kPa	1006
16495 kPa	1005.9
16521 kPa	1005.9
16542 kPa	1006
16564 kPa	1006
16586 kPa	1006
16612 kPa	1006
16634 kPa	1006.1
16660 kPa	1006.1
16681 kPa	1006
16704 kPa	1006.1
16730 kPa	1006.2
16752 kPa	1006.1
16774 kPa	1006.1
16800 kPa	1006.1
16823 kPa	1006.1
16845 kPa	1006.2
16872 kPa	1006.2
16894 kPa	1006.1
16917 kPa	1006.2
16944 kPa	1006.3
16967 kPa	1006.3
16990 kPa	1006.2
17017 kPa	1006.1
17040 kPa	1006.2
17063 kPa	1006.2
17090 kPa	1006.4
17114 kPa	1006.3
17138 kPa	1006.4
17161 kPa	1006.3
17189 kPa	1006.4
17212 kPa	1006.4
17236 kPa	1006.4
17264 kPa	1006.4
17288 kPa	1006.4
17312 kPa	1006.4
17335 kPa	1006.5
17364 kPa	1006.5
17388 kPa	1006.6
17412 kPa	1006.6
17441 kPa	1006.5
17467 kPa	1006.5
17491 kPa	1006.5
17520 kPa	1006.6
17544 kPa	1006.6
17568 kPa	1006.6
17593 kPa	1006.6
17623 kPa	1006.7
17647 kPa	1006.7
17672 kPa	1006.7
17702 kPa	1006.8
17726 kPa	1006.7
17756 kPa	1006.6
17781 kPa	1006.7
17807 kPa	1006.7
17832 kPa	1006.7
17862 kPa	1006.8
17887 kPa	1006.9
17913 kPa	1006.7
17944 kPa	1006.8
17969 kPa	1006.8
18000 kPa	1006.9
18025 kPa	1006.8
18051 kPa	1006.9
18077 kPa	1006.9
18108 kPa	1007
18134 kPa	1007
18161 kPa	1007.1
18192 kPa	1007
18218 kPa	1007
18249 kPa	1007.1
18276 kPa	1007.2
18303 kPa	1007.1
18329 kPa	1007.1
18361 kPa	1007.1
18388 kPa	1007.1
18415 kPa	1007.1
18447 kPa	1007.2
18475 kPa	1007.2
18502 kPa	1007.2
18530 kPa	1007.2
18563 kPa	1007.2
18590 kPa	1007.3
18618 kPa	1007.4
18651 kPa	1007.4
18679 kPa	1007.4
18707 kPa	1007.3
18740 kPa	1007.4
18768 kPa	1007.3
18797 kPa	1007.4
18831 kPa	1007.4
18859 kPa	1007.4
18888 kPa	1007.4
18917 kPa	1007.4
18952 kPa	1007.5
18980 kPa	1007.5
19014 kPa	1007.5
19043 kPa	1007.6
19072 kPa	1007.5
19101 kPa	1007.7
19136 kPa	1007.6
19166 kPa	1007.7
19196 kPa	1007.7
19232 kPa	1007.6
19262 kPa	1007.7
19292 kPa	1007.8
19322 kPa	1007.7
19388 kPa	1007.8
19515 kPa	1007.8
19552 kPa	1007.8
19582 kPa	1007.8
19613 kPa	1008
19650 kPa	1007.9
19682 kPa	1008
19716 kPa	1008
19747 kPa	1008.1
19778 kPa	1007.9
19817 kPa	1008
19848 kPa	1008
19887 kPa	1008
19919 kPa	1008
19952 kPa	1008.1
19992 kPa	1008.1
20023 kPa	1008.2
20052 kPa	1008.2
20085 kPa	1008.2
20113 kPa	1008.2
20143 kPa	1008.2
20171 kPa	1008.3
20199 kPa	1008.2
20232 kPa	1008.3
20260 kPa	1008.2
20288 kPa	1008.4
20321 kPa	1008.4
20349 kPa	1008.4
20383 kPa	1008.5
20411 kPa	1008.4
20440 kPa	1008.5
20474 kPa	1008.4
20502 kPa	1008.4
20532 kPa	1008.5
20561 kPa	1008.5
20596 kPa	1008.5
20625 kPa	1008.6
20659 kPa	1008.6
20689 kPa	1008.5
20718 kPa	1008.6
20747 kPa	1008.6
20783 kPa	1008.8
20813 kPa	1008.6
20848 kPa	1008.7
20877 kPa	1008.7
20908 kPa	1008.7
20944 kPa	1008.8
20974 kPa	1008.8
21004 kPa	1008.8
21035 kPa	1008.8
21072 kPa	1008.7
21102 kPa	1008.8
21133 kPa	1008.9
21170 kPa	1008.8
21202 kPa	1009
21233 kPa	1008.9
21271 kPa	1008.9
21302 kPa	1009
21334 kPa	1009.1
21366 kPa	1009
21404 kPa	1009
21436 kPa	1009.1
21467 kPa	1009.1
21506 kPa	1009.1
21538 kPa	1009
21570 kPa	1009.1
21602 kPa	1009.2
21640 kPa	1009.2
21673 kPa	1009.2
21712 kPa	1009.2
21744 kPa	1009.1
21778 kPa	1009.3
21817 kPa	1009.3
21851 kPa	1009.3
21883 kPa	1009.4
21916 kPa	1009.3
21956 kPa	1009.5
21989 kPa	1009.3
22029 kPa	1009.4
22063 kPa	1009.6
22097 kPa	1009.4
22137 kPa	1009.6
22171 kPa	1009.6
22206 kPa	1009.5
22241 kPa	1009.5
22282 kPa	1009.6
22316 kPa	1009.7
22351 kPa	1009.7
22393 kPa	1009.6
22429 kPa	1009.6
22457 kPa	1009.7
22500 kPa	1009.8
22542 kPa	1009.8
22578 kPa	1009.8
22621 kPa	1009.9
22658 kPa	1009.7
22697 kPa	1009.8
22736 kPa	1009.9
22782 kPa	1009.8
22818 kPa	1009.9
22851 kPa	1010
22882 kPa	1010
22921 kPa	1010.1
22951 kPa	1009.9
22978 kPa	1010.1
23006 kPa	1010
23030 kPa	1010
23059 kPa	1010.1
23083 kPa	1010.2
23108 kPa	1010.1
23132 kPa	1010.2
23156 kPa	1010.1
23180 kPa	1010.1
23209 kPa	1010.1
23233 kPa	1010.2
23262 kPa	1010.2
23287 kPa	1010.1
23311 kPa	1010.3
23336 kPa	1010.3
23364 kPa	1010.3
23389 kPa	1010.3
23414 kPa	1010.4
23444 kPa	1010.3
23468 kPa	1010.3
23497 kPa	1010.4
23523 kPa	1010.3
23547 kPa	1010.4
23572 kPa	1010.4
23603 kPa	1010.4
23627 kPa	1010.5
23657 kPa	1010.5
23683 kPa	1010.5
23708 kPa	1010.5
23738 kPa	1010.6
23763 kPa	1010.6
23790 kPa	1010.6
23820 kPa	1010.5
23846 kPa	1010.7
23871 kPa	1010.6
23902 kPa	1010.5
23928 kPa	1010.7
23954 kPa	1010.7
23985 kPa	1010.6
24011 kPa	1010.6
24037 kPa	1010.7
24063 kPa	1010.8
24094 kPa	1010.9
24121 kPa	1010.7
24148 kPa	1010.8
24180 kPa	1010.8
24206 kPa	1010.7
24237 kPa	1010.8
24264 kPa	1010.9
24291 kPa	1010.8
24318 kPa	1010.9
24350 kPa	1010.8
24378 kPa	1010.9
24405 kPa	1011
24437 kPa	1010.9
24464 kPa	1010.9
24497 kPa	1011.1
24525 kPa	1011
24552 kPa	1011
24580 kPa	1011.1
24612 kPa	1011
24640 kPa	1011
24667 kPa	1011.2
24701 kPa	1011.1
24728 kPa	1011.1
24761 kPa	1011.1
24789 kPa	1011.2
24817 kPa	1011.2
24845 kPa	1011.1
24879 kPa	1011.3
24908 kPa	1011.2
24936 kPa	1011.2
24970 kPa	1011.3
24999 kPa	1011.2
25027 kPa	1011.3
25056 kPa	1011.3
25091 kPa	1011.3
25119 kPa	1011.3
25148 kPa	1011.4
25182 kPa	1011.4
25212 kPa	1011.5
25247 kPa	1011.4
25278 kPa	1011.4
25307 kPa	1011.4
25336 kPa	1011.4
